{
  "source": "patent US10175228B2",
  "about": "“Method of using transmembrane channel-like protein 6 (TMC6) protein to identify substances affecting salty taste” (priority 2016, dated 2019)",
  "test_system": "Macaca mulatta TMC6 protein",
  "assay": "Calcium imaging of CHO-K1 cells expressing the Macaca mulatta TMC6 gene",
  "assay_type": "cell-based",
  "settings": "stimulation with high-concentration NaCl solution for 60 sec, 28 cells",
  "excerpt": "CHO-K1 cells were transfected with Macaca mulatta TMC6-2A-YC260TM in pcDNA3.1(−), Pongo abelii TMC6-2A-YC260TM in pcDNA3.1(−), Mouse-Aotus nancymaae chimera TMC6 2A-YC260TM in pcDNA3.1(−), or YC2.60-pcDNA, to prepare TMC6-expressing cells (cells expressing the Macaca mulatta TMC6 gene, the Pongo abelii TMC6 gene, or the mouse/Aotus nancymaae chimeric TMC6 gene, in combination with the YC2.60 gene) and control cells (cells expressing the YC2.60 gene). The prepared cells were stimulated, and activation of the cells was measured. The procedure was as follows.\nFirst, a plurality of sterile cover glasses (18×32 mm, Matsunami Glass) were placed at the bottom of a culture dish having a diameter of 100 mm so as not to be overlapped to each other. CHO-K1 cells (ATCC) were inoculated thereto while adjusting the number of the cells to obtain 60% confluence, and cultured for 24 hr. Then, medium exchange was carried out. As the medium, 12 mL of Ham's F-12K (Kaighn's) (Life Technologies) containing 10% fetal bovine serum (Life Technologies) was used. […]\nChange of the intracellular calcium concentration was measured and analyzed with analysis software equipped with FV1200. An average YFP/CFP value of all the cell of which the YFP/CFP value was changed by stimulation with the ATP stimulation solution was calculated at each measurement. […]",
  "data": [
    {"smiles": "[Cl-].[Na+]", "note": "[NaCl, sodium chloride]", "values": [
      {"measurement": "change of average YFP/CFP value (intracellular calcium concentration)", "value": "increase"}
    ]}
  ]
}
